In patent US12157730B2, “Heteroaryl derivative, method for producing same, and pharmaceutical composition comprising same as effective component” (VORONOI INC., priority 2019, dated 2024):

Biological target: T1, Ba/F3 cell EGFR Exon20 ins NPH (Homo sapiens, UniProt P00533, INS773NPH)
T1 construct: expressed in transfected cells; host or cells: Ba/F3
Test: Ba/F3 cell proliferation suppression, EGFR Exon20 ins NPH
Type: cell-based
Conditions: GI50 class; Ba/F3 cell line with NPH inserted at Exon20 of EGFR; 72 hours
Procedure, shortened: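 Seed 3000–5000 cells/well; after 24 h add compound (12 conc., 0.3 nM–50 um final); incubate 72 h; add CellTiter-Glo, 10 min room temperature; read luminescence; GI50 from % growth vs control, triplicate.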

| Ba/F3 (NPH) Activity | Compound |
| --- | --- |
| A (GI50 < 50 nM) | C=CC(=O)Nc1cc(Nc2cc(N3OCC[C@@H]3c3cccc(F)c3Cl)ncn2)c(OC)cc1N1CCC(N2C[C@@H]3C[C@H]2CO3)CC1 [compound 640, N-(2-(4-((1S,4S)-2-oxa-5-azabicyclo[2.2.1]heptane-5-yl)piperidine-1-yl)-5-((6-((R)-3-(2-chloro-3-fluorophenyl)isoxazolidine-2-yl)pyrimidine-4-yl)amino)-4-methoxyphenyl) acrylamide] |
| B (50 nM ≤ GI50 < 500 nM) | C=CC(=O)Nc1cc(Nc2cc(N3OCC[C@@H]3c3cc(F)cc(F)c3)ncn2)c(OC)cc1N1CCC(N2CCO[C@H](C)C2)CC1 [compound 758, N-(5-((6-((R)-3-(3,5-difluorophenyl)isoxazolidine-2-yl)pyrimidine-4-yl)amino)-4-methoxy-2-(4-((R)-2-methylmorpholino)piperidine-1-yl)phenyl) acrylamide] |
| A (GI50 < 50 nM) | C=CC(=O)Nc1cc(Nc2cc(N3OCC[C@@H]3Cc3cccc(F)c3)ncn2)c(OC)cc1N1CCC(N2CCN(C3CC3)[C@H](C)C2)CC1 [compound 994, N-(2-(4-((R)-4-cyclopropyl-3-methylpiperazine-1-yl)piperidine-1-yl)-5-((6-((S)-3-(3-fluorobenzyl)isoxazolidine-2-yl)pyrimidine-4-yl)amino)-4-methoxyphenyl) acrylamide] |
| B (50 nM ≤ GI50 < 500 nM) | C=CC(=O)Nc1cc(Nc2cc(N3OCC[C@@H]3c3ccc(Cl)c(Cl)c3)ncn2)c(OC)cc1N1CCC(N2CCN(C(C)C)CC2)CC1 [compound 689, N-(5-((6-((R)-3-(3,4-dichlorophenyl)isoxazolidine-2-yl)pyrimidine-4-yl)amino)-2-(4-(4-isopropylpiperazine-1-yl)piperidine-1-yl)-4-methoxyphenyl) acrylamide] |
| B (50 nM ≤ GI50 < 500 nM) | C=CC(=O)Nc1cc(Nc2cc(N3OCC[C@@H]3c3ccc(F)c(F)c3F)ncn2)c(OC)cc1N1CCC(N2CCC(N(C)C)CC2)CC1 [compound 656, N-(2-(4-(dimethylamino)-[1,4'-bipiperidine]-1'-yl)-4-methoxy-5-((6-((R)-3-(2,3,4-trifluorophenyl)isoxazolidine-2-yl)pyrimidine-4-yl)amino)phenyl)acrylamide] |
| A (GI50 < 50 nM) | C=CC(=O)Nc1cc(Nc2cc(N3OCC[C@@H]3c3cc(F)cc(F)c3)ncn2)c(OC)cc1N1CCC(N2CCN(C)C[C@@H]2C)CC1 [compound 762, N-(5-((6-((R)-3-(3,5-difluorophenyl)isoxazolidine-2-yl)pyrimidine-4-yl)amino)-2-(4-((S)-2,4-dimethylpiperazine-1-yl)piperidine-1-yl)-4-methoxyphenyl) acrylamide] |
| A (GI50 < 50 nM) | C=CC(=O)Nc1cc(Nc2cc(N3OCC[C@@H]3c3ccc(Cl)c(F)c3)ncn2)c(OC)cc1N1CCC(N2C[C@@H]3C[C@H]2CN3C)CC1 [compound 857, N-(5-((6-((R)-3-(4-chloro-3-fluorophenyl)isoxazolidine-2-yl)pyrimidine-4-yl)amino)-4-methoxy-2-(4-((1S,4S)-5-methyl-2,5-diazabicyclo[2.2.1]heptane-2-yl)piperidine-1-yl)phenyl)acrylamide] |
| A (GI50 < 50 nM) | C=CC(=O)Nc1cc(Nc2cc(N3OCC[C@@H]3c3cccc(C)c3F)ncn2)c(OC)cc1N1CCN(C2CC2)CC1 [compound 909, N-(2-(4-cyclopropylpiperazine-1-yl)-5-((6-((R)-3-(2-fluoro-3-methylphenyl)isoxazolidine-2-yl)pyrimidine-4-yl)amino)-4-methoxyphenyl) acrylamide] |
| A (GI50 < 50 nM) | C=CC(=O)Nc1cc(Nc2cc(N3OCC[C@@H]3c3cc(F)ccc3F)ncn2)c(OC)cc1N1C[C@@H](C)N(CC)[C@@H](C)C1 [compound 878, N-(5-((6-((R)-3-(2,5-difluorophenyl)isoxazolidine-2-yl)pyrimidine-4-yl)amino)-2-((3S,5R)-4-ethyl-3,5-dimethylpiperazine-1-yl)-4-methoxyphenyl) acrylamide] |
| A (GI50 < 50 nM) | C=CC(=O)Nc1cc(Nc2cc(N3OCC[C@@H]3c3ccc(Cl)c(F)c3)ncn2)c(OC)cc1N1CCC(N2CCC(N(C)C)CC2)CC1 [compound 803, N-(5-((6-((R)-3-(4-chloro-3-fluorophenyl)isoxazolidine-2-yl)pyrimidine-4-yl)amino)-2-(4-(dimethylamino)-[1,4'-bipiperidine]-1'-yl)-4-methoxyphenyl) acrylamide] |
| A (GI50 < 50 nM) | C=CC(=O)Nc1cc(Nc2cc(N3OCC[C@@H]3c3cc(F)ccc3F)ncn2)c(OC)cc1N1CC[C@@H](N(C)C)C1 [compound 848, N-(5-((6-(2,5-((R)-3-difluorophenyl)isoxazolidine-2-yl)pyrimidine-4-yl)amino)-2-((R)-3-(dimethylamino)pyrolidine-1-yl)-4-methoxyphenyl) acrylamide] |
| A (GI50 < 50 nM) | C=CC(=O)Nc1cc(Nc2cc(N3OCC[C@@H]3Cc3cccc(F)c3)ncn2)c(OC)cc1N1CCC(N2CCOCC2)CC1 [compound 996, N-(5-((6-((S)-3-(3-fluorobenzyl)isoxazolidine-2-yl)pyrimidine-4-yl)amino)-4-methoxy-2-(4-morpholinopiperidine-1-yl)phenyl)acrylamide] |
| B (50 nM ≤ GI50 < 500 nM) | C=CC(=O)Nc1cc(Nc2cc(N3OCC[C@@H]3Cc3cccc(N(C)C)c3)ncn2)c(OC)cc1N1CCC(N2CCN(C3CC3)[C@H](C)C2)CC1 [compound 1046, N-(2-(4-((R)-4-cyclopropyl-3-methylpiperazine-1-yl)piperidine-1-yl)-5-((6-((S)-3-(3-(dimethylamino)benzyl)isoxazolidine-2-yl)pyrimidine-4-yl)amino)-4-methoxyphenyl) acrylamide] |

More lines, now with the values behind:

| Compound | Ba/F3 (NPH) Activity |
| --- | --- |
| C=CC(=O)Nc1cc(Nc2cc(N3OCC[C@@H]3c3cc(F)cc(F)c3)ncn2)c(OC)cc1N1CCC(N2CCN(C3CC3)C[C@@H]2C)CC1 [Example 111, N-(2-(4-((S)-4-cyclopropyl-2-methylpiperazine-1-yl)piperidine-1-yl)-5-((6-((R)-3-(3,5-difluorophenyl)isoxazolidine-2-yl)pyrimidine-4-yl)amino)-4-methoxyphenyl) acrylamide] | A (GI50 < 50 nM) |
| C=CC(=O)Nc1cc(Nc2cc(N3OCC[C@@H]3c3ccc4ccccc4c3)ncn2)c(OC)cc1N1CCC(N2C[C@@H]3C[C@H]2CO3)CC1 [compound 512, N-(2-(4-((1S,4S)-2-oxa-5-azabicyclo[2.2.1]heptane-5-yl)piperidine-1-yl)-4-methoxy-5-((6-((R)-3-(naphthalene-2-yl)isoxazolidine-2-yl)pyrimidine-4-yl)amino)phenyl)acrylamide] | A (GI50 < 50 nM) |
| C=CC(=O)Nc1cc(Nc2cc(N3OCC[C@@H]3c3ccc(F)cc3F)ncn2)c(OC)cc1N1CCC(N2C[C@H]3C[C@@H]2CO3)CC1 [compound 423, N-(2-(4-((1R,4R)-2-oxa-5-azabicyclo [2.2.1]heptane-5-yl)piperidine-1-yl)-5-((6-((R)-3-(2,4-difluorophenyl)isoxazolidine-2-yl)pyrimidine-4-yl)amino)-4-methoxyphenyl) acrylamide] | A (GI50 < 50 nM) |
| C=CC(=O)Nc1cc(Nc2cc(N3OCC[C@@H]3c3ccc(Cl)c(F)c3)ncn2)c(OC)cc1N1CCC(N2CCN(C3CCC3)CC2)CC1 [Example 71, N-(5-((6-((R)-3-(4-chloro-3-fluorophenyl)isoxazolidine-2-yl)pyrimidine-4-yl)amino)-2-(4-(4-cyclobutylpiperazine-1-yl)piperidine-1-yl)-4-methoxyphenyl) acrylamide] | A (GI50 < 50 nM) |
| C=CC(=O)Nc1cc(Nc2cc(N3OCC[C@@H]3c3cccc(F)c3)ncn2)c(OC)cc1N1CCC(N2CCN(C3COC3)CC2)CC1 [Example 80, N-(5-((6-((R)-3-(3-fluorophenyl)isoxazolidine-2-yl)pyrimidine-4-yl)amino)-4-methoxy-2-(4-(4-(oxetane-3-yl)piperazine-1-yl)piperidine-1-yl)phenyl) acrylamide] | A (GI50 < 50 nM) |
| C=CC(=O)Nc1cc(Nc2cc(N3OCC[C@@H]3c3c(F)cccc3F)ncn2)c(OC)cc1N1CCC(N2CCN(C3CC3)[C@@H](C)C2)CC1 [Example 136, N-(2-(4-((S)-4-cyclopropyl-3-methylpiperazine-1-yl)piperidine-1-yl)-5-((6-((R)-3-(2,6-difluorophenyl)isoxazolidine-2-yl)pyrimidine-4-yl)amino)-4-methoxyphenyl) acrylamide] | B (50 nM ≤ GI50 < 500 nM) |
| C=CC(=O)Nc1cc(Nc2cc(N3OCC[C@@H]3c3cc(F)ccc3F)ncn2)c(OC)cc1N1C[C@@H]2C[C@H]1CO2 [compound 329, N-(2-((1S,4S)-2-oxa-5-azabicyclo[2.2.1]heptane-5-yl)-5-((6-((R)-3-(2,5-difluorophenyl)isoxazolidine-2-yl)pyrimidine-4-yl)amino)-4-methoxyphenyl) acrylamide] | A (GI50 < 50 nM) |
| C=CC(=O)Nc1cc(Nc2cc(N3OCC[C@@H]3c3cccc(Cl)c3C)ncn2)c(OC)cc1N1CCC(N2CCN(C3CCC3)CC2)CC1 [Example 188, N-(5-((6-((R)-3-(3-chloro-2-methylphenyl)isoxazolidine-2-yl)pyrimidine-4-yl)amino)-2-(4-(4-cyclobutylpiperazine-1-yl)piperidine-1-yl)-4-methoxyphenyl) acrylamide] | A (GI50 < 50 nM) |
| C=CC(=O)Nc1cc(Nc2cc(N3OCC[C@@H]3c3cccc(Cl)c3C)ncn2)c(OC)cc1N1CCC(N2CCN(C3CC3)CC2)CC1 [Example 145, N-(5-((6-((R)-3-(3-chloro-2-methylphenyl)isoxazolidine-2-yl)pyrimidine-4-yl)amino)-2-(4-(4-cyclopropylpiperazine-1-yl)piperidine-1-yl)-4-methoxyphenyl) acrylamide] | A (GI50 < 50 nM) |
